Assay results: PubChem BioAssay AID434957 (The Scripps Research Institute Molecular Screening Center, 2010)
Activity calls are given as the source filed them.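 Rule for the calls: active = IC50, the dose halving KLF5 reporter signal, at most 10 µM; inactive = IC50 above 10 µM or none.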

test system: DLD-1 KLF5 promoter luciferase reporter, luminescence; test: KLF5 promoter reporter inhibitors, SAR follow-up, luminescence, DLD-1 cells, round 1 (AID 434957)

IC50	SMILES
> 39.8 µM (inactive)	CCNC(=O)c1sc(NC(=O)c2ccc3ncsc3c2)nc1C
> 39.8 µM (inactive)	COc1ccc2nc(Nc3nc4ccc(F)cc4s3)sc2c1
> 39.8 µM (inactive)	CC1(C)CC(=O)c2sc(NC(=O)c3ccc4ncsc4c3)nc2C1
0.0131 µM	CN(C)C(=O)c1ccc2nc(Nc3nc4ccc(F)cc4s3)sc2c1
> 39.8 µM (inactive)	Cc1ccc(-n2nc3cc(Cl)c(NC(=O)c4cccnc4)cc3n2)cc1
0.107 µM	CC(C)(C)c1ccc(-c2noc(CCC(=O)Nc3ccncc3)n2)cc1
> 39.8 µM (inactive)	O=C(Nc1cc2nn(-c3ccccc3)nc2cc1Cl)C1COc2ccccc2C1 (stereo unspecified)
0.116 µM	CC(C)(C)c1ccc(-c2noc(CCC(=O)Nc3ccccc3)n2)cc1
> 39.8 µM (inactive)	Cc1nc(NC(=O)c2ccc3ncsc3c2)sc1C(=O)N(C)C
> 39.8 µM (inactive)	COc1ccc(-n2nc3ccc(NC(=O)C4CCN(S(=O)(=O)c5ccc(Cl)cc5)CC4)cc3n2)cc1
> 39.8 µM (inactive)	CCOc1ccc2nc(Nc3nc4ccc(F)cc4s3)sc2c1
19.4 µM (inactive)	CC(C)(C)c1ccc(-c2coc(CCC(=O)Nc3ccccn3)n2)cc1
4.56 µM	CC(C)(C)C(=O)Nc1ccc2nn(-c3ccc(F)cc3)nc2c1
0.267 µM	CC(C)(C)c1ccc(-c2noc(CCC(=O)Nc3ccc(N4CCOCC4)nc3)n2)cc1
> 39.8 µM (inactive)	CC(C)(C)c1ccc(-c2noc(CCc3nc4ccccc4[nH]3)n2)cc1
> 39.8 µM (inactive)	CC(NC(=O)c1ccccc1)c1nc(-c2ccc(C(C)(C)C)cc2)no1 (stereo unspecified)
> 39.8 µM (inactive)	CS(=O)(=O)c1ccc2nc(Nc3nc4ccc(F)cc4s3)sc2c1
> 39.8 µM (inactive)	Cc1ccc(OCC(=O)Nc2ccc3nn(-c4cccc(C(F)(F)F)c4)nc3c2)cc1C

IC50	SMILES
> 39.8 µM (inactive)	Nc1cc2nn(-c3ccccc3)nc2cc1Cl
0.159 µM	CC(C)(C)c1ccc(-c2noc(CCC(=O)Nc3ccccn3)n2)cc1
> 39.8 µM (inactive)	COc1ccc(-n2nc3ccc(NC(=O)C(C)(C)C)cc3n2)cc1
> 39.8 µM (inactive)	O=C(COc1ccccc1)Nc1ccc2nn(-c3cccc(Cl)c3)nc2c1
> 39.8 µM (inactive)	CC(=O)Nc1ccc2nc(Nc3nc4ccc(F)cc4s3)sc2c1
0.0562 µM	CCNC(=O)c1ccc2nc(Nc3nc4ccc(F)cc4s3)sc2c1
> 39.8 µM (inactive)	CC(C)c1ccc2nc(Nc3nc4ccc(F)cc4s3)sc2c1
0.229 µM	Cc1cccc(NC(=O)CCc2nc(-c3ccc(C(C)(C)C)cc3)no2)c1
3.18 µM	CC(C)(C)C(=O)Nc1ccc2nn(-c3ccccc3)nc2c1
7.96 µM	O=C(Cc1ccccc1)Nc1cc2nn(-c3ccccc3)nc2cc1Cl
0.806 µM	CC(C)(C)c1ccc(-c2noc(CCCC(=O)Nc3ccccc3Cl)n2)cc1
> 39.8 µM (inactive)	CC(=O)c1sc(NC(=O)c2ccc3ncsc3c2)nc1-c1ccccc1
> 39.8 µM (inactive)	COc1ccc(-n2nc3cc(C)c(NC(=O)C(C)C)cc3n2)cc1
0.285 µM	CCOc1ccc(NC(=O)CCc2nc(-c3ccc(C(C)(C)C)cc3)no2)cc1
26.3 µM (inactive)	CC(C)C(=O)Nc1ccc2nn(-c3ccc(Cl)cc3)nc2c1
> 39.8 µM (inactive)	Cc1ccc(-n2nc3ccc(NC(=O)COc4ccc(C)c(C)c4)cc3n2)cc1
> 39.8 µM (inactive)	CC(=O)c1sc(NC(=O)c2ccc3ncsc3c2)nc1C
3.57 µM	CC(C)(C)c1ccc(-c2noc(CCC(=O)NCc3ccccc3)n2)cc1
